In patent publication EP4389123A1 (priority 2022, dated 2024):

Experiments:
murine prion strain RML = murine prion strain RML (Mus musculus, UniProt P04925); type: biochemical
Vole-CWD prion strain = test system: Vole-CWD prion strain; design: species or system mice; conditions: mouse, in vivo
[1] = test system: human prion strain causing Gerstmann-Sträussler-Scheinker syndrome (GSS); design: species or system mice; conditions: mouse, in vivo, ip
301C = test system: 301C; design: species or system mice; conditions: mouse, in vivo
22L = test system: 22L; design: species or system mice; conditions: mouse, in vivo
RML = test system: RML; design: species or system mice; conditions: mouse, in vivo

Sequence of murine prion strain RML (P04925 23-230 limits assumed): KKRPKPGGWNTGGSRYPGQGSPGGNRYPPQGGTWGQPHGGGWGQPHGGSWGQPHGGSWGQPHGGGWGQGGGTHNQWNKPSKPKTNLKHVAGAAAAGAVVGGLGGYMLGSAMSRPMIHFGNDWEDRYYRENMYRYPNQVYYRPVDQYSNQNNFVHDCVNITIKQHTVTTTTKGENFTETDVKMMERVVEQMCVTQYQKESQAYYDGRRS

Row | Compound | prion propagation inhibitory capacity (murine prion strain RML) | increase in survival time (Vole-CWD prion strain) [%] | increase in survival time [1] [%] | survival time prolongation (301C) [%] | times more efficient as inhibitor (murine prion strain RML) [times] | survival time prolongation (22L) [%] | increase in survival times (RML) [%]
1 | C[n+]1ccc(-c2c3nc(c(-c4cc[n+](C)cc4)c4ccc([nH]4)c(-c4cc[n+](C)cc4)c4nc(c(-c5cc[n+](C)cc5)c5ccc2[nH]5)C=C4)C=C3)cc1 [TMPyP, reference compound] | showed prion propagation inhibitory capacity |  |  |  |  |  | 
2 | O=C(O)CCC1=C(CC(=O)O)c2cc3[nH]c(cc4nc(cc5[nH]c(cc1n2)c(CC(=O)O)c5CCC(=O)O)C(CC(=O)O)=C4CCC(=O)O)c(CC(=O)O)c3CCC(=O)O [UROI, uroporphyrin I] | showed prion propagation inhibitory capacity | 11 | > 200 | 12 | 125 | 10 | 30
